The numbers were not newly measured in patent US6365551B1, “Highly concentrated glyphosate herbicidal compositions” (Monsanto Technology LLC, priority 1990, dated 2002), which cites them from elsewhere.

For this data set the following is noted: glyphosate in acid form.

Take `O=C(O)CNCP(=O)(O)O` [glyphosate, N-phosphonomethylglycine]: the water solubility entry was “about 1.2%”.
